Activity calls are given as the source filed them.
Assays:
Assay type in all cases: functional, cell-based
[1] = system: HepG2; assay: Cytotoxicity against human HepG2 cells at 4 to 10 mM after 24 hrs by MTT assay
[2] = system: HepG2; assay: Cytotoxicity in human HepG2 cells assessed as elevation of intracellular calcium concentration by Fluo4AM-fluorescence based high content screening assay
[3] = system: HepG2; assay: Cytotoxicity in human HepG2 cells assessed as alteration of mitochondrial membrane potential by TMRM-fluorescence based high content screening assay
[4] = system: HepG2; assay: Induction of apoptosis in human HepG2 cells assessed as morphological nuclear changes by Hoechst33342-staining based high content screening assay

Measured: Activity

Nc1nc(=O)[nH]cc1F
inactive: all assays above

Reference: ChEMBL document CHEMBL2057158, “Synthesis and cytotoxic activity of 4-N-carboxybutyl-5-fluorocytosyl-Arg-Gln-Trp-Arg-Arg-Trp-Trp-Gln-Arg-NH₂” (Bioorg Med Chem Lett, 2012)
